# Paper PMC6688371, “Effect of the inhaled PDE4 inhibitor CHF6001 on biomarkers of inflammation in COPD” (Respiratory Research, 2019)
# Where two headings read alike, the source gives them in different places. Marks after values point to notes of the source that are not given here.
# Key:
# [1] = Plasma pharmacokinetics at steady state (Day 32); type: in vivo, human; conditions: for Tmax,ss / CL/F / Cmax / AUC(0-t): plasma on Day 32; for Tmax,ss: median (range); for CL/F / Cmax / AUC(0-t): both sexes, human, inhaled or intranasal, geometric mean (%CV); for AUC(0-t): read-out: AUC0–12,ss
# Procedure: Induced sputum was collected pre-dose on Day 1 of each treatment period (for the first treatment period, the sample could be collected up to 10 days prior to Day 1), and 2 h post-dose on Days 20, 26 and 32 (see the Additional file 1 for further detail on sputum and blood analysis methods). Blood samples were taken pre-dose on Day 1, and pre-dose and at 30 min, and 1, 1.5, 2, 3, 4, 6, 8 and 12 h post-dose on Day 32. Other pre-dose assessments on Days 1 and 32 were spirometry (forced expiratory volume in 1 s [FEV1] and forced vital capacity [FVC]), forced oscillometry, and COPD Assessment Test (CAT), with Baseline Dyspnea Index recorded on Day 1 and Transition Dyspnea Index (TDI) on Day 32. Central and peripheral airways mechanics were assessed using forced oscillometry, with the following values determined: inspiratory and expiratory resistance (at 5 and 19 Hz), inspiratory and expiratory reactance, tidal expiratory flow limitation and the percentage of flow limited breaths.
# (§1) The mean changes from baseline to Day 32 for lung function, CAT and TDI were analysed using similar methodology to sputum biomarkers, but were not log-transformed. […] The sputum concentration of CHF6001 was also evaluated at 2 h post-dose, using the mean of all values measured on Days 20, 26 and 32. Pharmacokinetic variables were summarised using geometric means and coefficients of variation, except for Tmax,ss, which is presented as median (range). […]
# Validation procedures again followed those outlined for the analysis of biomarkers above. All […]
# concentrations of biomarkers in human serum or plasma from regulatory studies.
# Blood for the pharmacokinetic analysis was collected pre-dose and at 30 min, and 1, 1.5, 2, 3, 4, 6, 8 and 12 h post-dose on Day 32 of each treatment period. Samples were centrifuged at 2000 g for 15 min at 4C, with the resulting plasma shipped to the central laboratory at –60 […]
# to –90C. The plasma concentration of CHF6001 was evaluated using a LC-MS/MS method following solid phase extraction. Validation procedures again followed those outlined for the analysis of biomarkers above. The bioanalytical method wa s found to be linear over the calibration range of 10 to 20,000 pg/mL. The precision and accuracy of the method was found to be within the target limits of within 20% at the lower limit of quantification 10 pg/mL and within 15% at all other concentrations.
# The recovery of CHF6001 from human plasma was consistent across the analytical range , with no significant matrix effects. […]
# for up to 24 h at the sample processing temperature (nominally +20C), a fter storage for 184 days in a freezer (nominally –80C) and after four freeze-thaw cycles at nominally – 80C / +20C. Therefore the method was considered to be suitable for measuring concentrations of CHF6001 in human plasma samples from regulatory studies.
# The study was approved by two centralised ethics committees on behalf of the sites:
# • UK: Health Research Authority, North West, Greater Manchester South Research Ethics Committee, Manchester (approval reference 16/NW/0553).
# • Germany: Ethics Committee of Hesse Medical Association, Frankfurt am Main (approval reference FF 98/2016).
# Patients had to meet all the following inclusion criteria to be eligible for enrolment into the […]
# 1. Written informed consent obtained prior to any study-related procedures;
# 2. Male or female aged ≥40 years;
# 3. A female was eligible to enter the study if they were of non-childbearing potential, i.e. physiologically incapable of becoming pregnant (e.g. postmenopausal women defined as being amenorrhoeic for ≥12 consecutive months without an alternative medical cause. If indicated, as per Investigator’s request, post -menopausal status
# patients with COPD = assay: Safety and tolerability (adverse events, vital signs, ECG, laboratory data)
# From the text: The Safety population is all randomised patients who received at least one dose of study medication.
# [2] = Sputum concentration of CHF6001; type: in vivo, human; conditions: for concentration at 2 h: sputum, mean of all values measured on Days 20, 26 and 32, geometric mean (%CV), read-out: Sputum concentration at 2 h post-dose
# Procedure: as §1
# Only one of the sputum samples induced at 2 h post-dose on Days 20, 26 or 32 was used to evaluate CHF6001 concentration, with the evaluation performed only if a minimum of 300 mg of residual sputum remained. Approximately 30 mg of sputum plug was transferred to a polypropylene cryotube, and was shipped in an upright position at –80C to a central laboratory for analysis. The concentration of CHF6001 was evaluated using a LC-MS/MS method following solid phase extraction. Validation procedures were the same as those listed above for biomarkers. […]
# over the calibration range of 30 to 20,000 ng/mL. The precision and accuracy of the method […]
# 30 ng/mL and within 15% at all other concentrations. No significant matrix effects were […]
# temperature (nominally +22C), after storage for 93 days in a freezer set at –80C and after four freeze-thaw cycles at nominally –80C / +22C. The method was considered to be suitable for measuring concentrations of CHF6001 in human sputum samples from […]
structure (smiles),measurement,setting,value
CS(=O)(=O)Nc1ccc(C(=O)O[C@@H](Cc2c(Cl)c[n+]([O-])cc2Cl)c2ccc(OC(F)F)c(OCC3CC3)c2)cc1OCC1CC1 [CHF6001],"Tmax,ss",[1]; 800 μg BID inhaled,2.00 (0.50; 4.08)^a h
same,"Tmax,ss",[1]; 1600 μg BID inhaled,2.00 (0.48; 4.05)^b h
same,Systemic exposure in relation to dose,"[1]; Day 32, 800 vs 1600 μg BID",broadly proportional to dose
same,CL/F,"[1]; 800 ug, 800 μg BID inhaled",603 mL/min
same,Cmax,"[1]; 800 ug, 800 μg BID inhaled",2.44 ng/mL
same,AUC(0-t),"[1]; 800 ug, 800 μg BID inhaled",22.1 ng·h/mL
same,CL/F,"[1]; 1600 ug, 1600 μg BID inhaled",653 mL/min
same,Cmax,"[1]; 1600 ug, 1600 μg BID inhaled",4.5 ng/mL
same,AUC(0-t),"[1]; 1600 ug, 1600 μg BID inhaled",40.8 ng·h/mL
same,Adverse events,patients with COPD; 800 μg BID (N = 58),30 (51.7) patients (%)
same,Adverse events leading to study drug withdrawal,patients with COPD; 800 μg BID (N = 58),3 (5.2) patients (%)
same,Adverse events with a fatal outcome,patients with COPD; 800 μg BID (N = 58),0 patients (%)
same,Back pain,patients with COPD; 800 μg BID (N = 58),4 (6.9) patients (%)
same,Cough,patients with COPD; 800 μg BID (N = 58),1 (1.7) patients (%)
same,Diarrhoea,patients with COPD; 800 μg BID (N = 58),3 (5.2) patients (%)
same,Drug-related adverse events,patients with COPD; 800 μg BID (N = 58),1 (1.7) patients (%)
same,Drug-related adverse events: Dry mouth,patients with COPD; 800 μg BID (N = 58),0 patients (%)
same,Drug-related adverse events: Sleep disorders,patients with COPD; 800 μg BID (N = 58),1 (1.7) patients (%)
same,Drug-related serious adverse events,patients with COPD; 800 μg BID (N = 58),0 patients (%)
same,Fatigue,patients with COPD; 800 μg BID (N = 58),1 (1.7) patients (%)
same,Headache,patients with COPD; 800 μg BID (N = 58),1 (1.7) patients (%)
same,Nasopharyngitis,patients with COPD; 800 μg BID (N = 58),5 (8.6) patients (%)
same,Oropharyngeal pain,patients with COPD; 800 μg BID (N = 58),3 (5.2) patients (%)
same,Serious adverse events,patients with COPD; 800 μg BID (N = 58),2 (3.4) patients (%)
same,Severe adverse events,patients with COPD; 800 μg BID (N = 58),0 patients (%)
same,Tension headache,patients with COPD; 800 μg BID (N = 58),1 (1.7) patients (%)
same,Toothache,patients with COPD; 800 μg BID (N = 58),3 (5.2) patients (%)
same,Patients reporting gastrointestinal adverse events,"patients with COPD; 800 μg BID, seven patients",12.1%
same,Adverse events,patients with COPD; 1600 μg BID (N = 59),33 (55.9) patients (%)
same,Adverse events leading to study drug withdrawal,patients with COPD; 1600 μg BID (N = 59),2 (3.4) patients (%)
same,Adverse events with a fatal outcome,patients with COPD; 1600 μg BID (N = 59),0 patients (%)
same,Back pain,patients with COPD; 1600 μg BID (N = 59),1 (1.7) patients (%)
same,Cough,patients with COPD; 1600 μg BID (N = 59),3 (5.1) patients (%)
same,Diarrhoea,patients with COPD; 1600 μg BID (N = 59),1 (1.7) patients (%)
same,Drug-related adverse events,patients with COPD; 1600 μg BID (N = 59),1 (1.7) patients (%)
same,Drug-related adverse events: Dry mouth,patients with COPD; 1600 μg BID (N = 59),1 (1.7) patients (%)
same,Drug-related adverse events: Sleep disorders,patients with COPD; 1600 μg BID (N = 59),0 patients (%)
same,Drug-related serious adverse events,patients with COPD; 1600 μg BID (N = 59),0 patients (%)
same,Fatigue,patients with COPD; 1600 μg BID (N = 59),3 (5.1) patients (%)
same,Headache,patients with COPD; 1600 μg BID (N = 59),7 (11.9) patients (%)
same,Nasopharyngitis,patients with COPD; 1600 μg BID (N = 59),6 (10.2) patients (%)
same,Oropharyngeal pain,patients with COPD; 1600 μg BID (N = 59),2 (3.4) patients (%)
same,Serious adverse events,patients with COPD; 1600 μg BID (N = 59),2 (3.4) patients (%)
same,Severe adverse events,patients with COPD; 1600 μg BID (N = 59),1 (1.7) patients (%)
same,Tension headache,patients with COPD; 1600 μg BID (N = 59),3 (5.1) patients (%)
same,Toothache,patients with COPD; 1600 μg BID (N = 59),1 (1.7) patients (%)
same,Patients reporting gastrointestinal adverse events,"patients with COPD; 1600 μg BID, six patients",10.2%
same,"Haematology or biochemistry data, between treatments",patients with COPD; 800 or 1600 μg BID and placebo,no major differences
same,"Systolic or diastolic blood pressure, heart rate or Fridericia's corrected QT interval vs placebo",patients with COPD; either dose (800 or 1600 μg BID),no differences
same,Sputum concentration in relation to dose,"[2]; 2 h post-dose, steady state (after Day 20), 800 vs 1600 μg BID",dose-proportionality was observed
same,Kp at 2 h,"[2]; both sexes, human, sputum relative to plasma, inhaled, 2 h post-dose, steady state",~2000
same,concentration at 2 h,"[2]; both sexes, human, 800 μg BID inhaled",4900 ng/mL
same,concentration at 2 h,"[2]; both sexes, human, 1600 μg BID inhaled",10200 ng/mL
